Experimental data from doi:10.1101/2025.01.28.635346v1 (bioRxiv, 2025).
Where two headings read alike, the source gives them in different places. Bridge positions count the residues as written; N and C are the ends. Side chains are listed from the residue outwards. Peptide text beside a SMILES is read from it. * marks the point of attachment. Butanoyl(4-(4-I-phenyl)) = O=C(CCCc1ccc(I)cc1)*; PEG2 = NCCOCCOCCC(=O)O

What was measured:
[1] = Plasma stability, human plasma; format: in vitro ADME
[2] = Plasma stability, mouse plasma; format: in vitro ADME
[3] = Hepatocyte stability, cryopreserved mouse hepatocytes; format: in vitro ADME
[4] = target: HRH1 (Homo sapiens, UniProt P35367); test: Safetyscan47 GPCR Calcium Flux, Antagonist; format: cell-based; conditions: for Emax: read-out: Max Response
[5] = target: HTR2A (Homo sapiens, UniProt P28223); test: Safetyscan47 GPCR Calcium Flux, Antagonist; format: cell-based; conditions: for Emax: read-out: Max Response
[6] = target: HTR2B (Homo sapiens, UniProt P41595); test: Safetyscan47 GPCR Calcium Flux, Antagonist; format: cell-based; conditions: for Emax: read-out: Max Response
[7] = target: HTR1B (Homo sapiens, UniProt P28222); test: Safetyscan47 GPCR cAMP, Agonist; format: cell-based; conditions: for Emax: read-out: Max Response
[8] = target: ADRB1 (Homo sapiens, UniProt P08588); test: Safetyscan47 GPCR cAMP, Antagonist; format: cell-based; conditions: for Emax: read-out: Max Response
[9] = target: ADRB2 (Homo sapiens, UniProt P07550); test: Safetyscan47 GPCR cAMP, Antagonist; format: cell-based; conditions: for Emax: read-out: Max Response
[10] = target: T1, CHRM2 (Homo sapiens, UniProt P08172); test: Safetyscan47 GPCR cAMP, Antagonist; format: cell-based; conditions: for Emax: read-out: Max Response
T1 sequence (P08172 1-466): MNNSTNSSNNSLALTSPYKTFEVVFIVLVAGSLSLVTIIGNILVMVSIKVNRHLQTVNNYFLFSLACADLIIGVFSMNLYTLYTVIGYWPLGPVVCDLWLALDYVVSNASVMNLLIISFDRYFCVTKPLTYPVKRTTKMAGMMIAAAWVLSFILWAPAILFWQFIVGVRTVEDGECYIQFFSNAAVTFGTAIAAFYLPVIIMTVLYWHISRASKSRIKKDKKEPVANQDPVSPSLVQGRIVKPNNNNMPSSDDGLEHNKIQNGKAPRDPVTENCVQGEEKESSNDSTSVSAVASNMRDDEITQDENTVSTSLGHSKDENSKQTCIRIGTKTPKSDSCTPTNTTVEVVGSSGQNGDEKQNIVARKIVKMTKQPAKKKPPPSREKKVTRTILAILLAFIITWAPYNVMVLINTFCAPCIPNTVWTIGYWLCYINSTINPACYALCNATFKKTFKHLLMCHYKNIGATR

[11] = target: DRD2S (Homo sapiens, UniProt P14416); test: Safetyscan47 GPCR cAMP, Antagonist; format: cell-based; conditions: for Emax: read-out: Max Response
[12] = target: HRH2 (Homo sapiens, UniProt P25021); test: Safetyscan47 GPCR cAMP, Antagonist; format: cell-based; conditions: for Emax: read-out: Max Response
[13] = target: OPRD1 (Homo sapiens, UniProt P41143); test: Safetyscan47 GPCR cAMP, Antagonist; format: cell-based; conditions: for Emax: read-out: Max Response
[14] = target: hERG (Homo sapiens, UniProt Q12809); test: Safetyscan47 Ion Channel, Blocker; format: cell-based
[15] = target: LCK (Homo sapiens, UniProt P06239); test: Safetyscan47 Kinases Binding, Inhibitor; conditions: for Emax: read-out: Max Response
[16] = target: VEGFR2 (Homo sapiens, UniProt P35968); test: Safetyscan47 Kinases Binding, Inhibitor; conditions: for Emax: read-out: Max Response
[17] = target: T2, COX2 (Homo sapiens, UniProt P35354); test: Safetyscan47 Non-Kinase Enzymes Enzymatic, Inhibitor; format: biochemical; conditions: for Emax: read-out: Max Response
T2 sequence (P35354 18-604): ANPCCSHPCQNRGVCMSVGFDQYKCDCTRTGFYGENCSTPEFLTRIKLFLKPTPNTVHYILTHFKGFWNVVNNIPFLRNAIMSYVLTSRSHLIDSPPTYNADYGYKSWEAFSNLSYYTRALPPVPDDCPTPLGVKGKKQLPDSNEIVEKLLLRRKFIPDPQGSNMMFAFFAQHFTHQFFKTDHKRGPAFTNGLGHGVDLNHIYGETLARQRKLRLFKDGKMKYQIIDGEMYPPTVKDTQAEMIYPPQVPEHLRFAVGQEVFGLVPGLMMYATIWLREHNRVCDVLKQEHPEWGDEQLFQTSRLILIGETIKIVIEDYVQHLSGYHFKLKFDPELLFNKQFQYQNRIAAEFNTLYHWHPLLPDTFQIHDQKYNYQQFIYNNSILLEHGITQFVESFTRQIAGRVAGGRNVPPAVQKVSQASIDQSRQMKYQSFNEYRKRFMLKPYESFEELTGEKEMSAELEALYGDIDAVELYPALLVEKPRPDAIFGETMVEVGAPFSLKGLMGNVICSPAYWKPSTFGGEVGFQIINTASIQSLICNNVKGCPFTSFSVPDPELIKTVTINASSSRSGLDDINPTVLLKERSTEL

Chain of HTR2B (P41595 whole entry): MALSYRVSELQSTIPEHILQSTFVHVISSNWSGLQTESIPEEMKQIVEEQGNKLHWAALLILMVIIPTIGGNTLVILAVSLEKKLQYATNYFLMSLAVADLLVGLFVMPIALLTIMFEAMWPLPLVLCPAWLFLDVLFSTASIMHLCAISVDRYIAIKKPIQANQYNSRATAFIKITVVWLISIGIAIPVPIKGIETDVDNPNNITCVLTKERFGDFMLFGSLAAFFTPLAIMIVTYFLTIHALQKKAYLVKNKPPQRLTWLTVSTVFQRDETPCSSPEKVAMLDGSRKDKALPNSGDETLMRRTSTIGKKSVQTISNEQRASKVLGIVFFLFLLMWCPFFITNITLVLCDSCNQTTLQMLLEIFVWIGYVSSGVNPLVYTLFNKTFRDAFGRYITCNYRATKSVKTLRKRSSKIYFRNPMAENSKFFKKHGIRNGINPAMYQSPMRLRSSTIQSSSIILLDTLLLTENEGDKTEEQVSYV
Chain of HRH2 (P25021 whole entry): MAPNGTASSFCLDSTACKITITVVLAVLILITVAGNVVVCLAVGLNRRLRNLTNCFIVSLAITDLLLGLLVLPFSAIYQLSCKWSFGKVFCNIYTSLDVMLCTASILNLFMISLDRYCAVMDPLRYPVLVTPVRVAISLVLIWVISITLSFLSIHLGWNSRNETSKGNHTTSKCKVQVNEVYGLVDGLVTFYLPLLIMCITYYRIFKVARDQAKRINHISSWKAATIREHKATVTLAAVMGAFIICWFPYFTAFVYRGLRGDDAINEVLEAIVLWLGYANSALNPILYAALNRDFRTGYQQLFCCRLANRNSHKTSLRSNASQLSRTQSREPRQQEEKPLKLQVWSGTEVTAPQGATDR
Chain of HTR1B (P28222 whole entry): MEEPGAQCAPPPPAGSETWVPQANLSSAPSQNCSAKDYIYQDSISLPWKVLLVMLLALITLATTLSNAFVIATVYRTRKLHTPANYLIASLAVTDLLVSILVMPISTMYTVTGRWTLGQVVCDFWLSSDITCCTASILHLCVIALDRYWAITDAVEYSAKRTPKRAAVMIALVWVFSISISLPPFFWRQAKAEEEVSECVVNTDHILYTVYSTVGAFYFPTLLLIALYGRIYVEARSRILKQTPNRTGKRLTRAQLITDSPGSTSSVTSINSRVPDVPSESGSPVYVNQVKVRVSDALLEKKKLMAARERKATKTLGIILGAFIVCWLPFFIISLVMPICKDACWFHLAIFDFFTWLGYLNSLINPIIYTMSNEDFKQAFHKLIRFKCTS
Chain of OPRD1 (P41143 whole entry): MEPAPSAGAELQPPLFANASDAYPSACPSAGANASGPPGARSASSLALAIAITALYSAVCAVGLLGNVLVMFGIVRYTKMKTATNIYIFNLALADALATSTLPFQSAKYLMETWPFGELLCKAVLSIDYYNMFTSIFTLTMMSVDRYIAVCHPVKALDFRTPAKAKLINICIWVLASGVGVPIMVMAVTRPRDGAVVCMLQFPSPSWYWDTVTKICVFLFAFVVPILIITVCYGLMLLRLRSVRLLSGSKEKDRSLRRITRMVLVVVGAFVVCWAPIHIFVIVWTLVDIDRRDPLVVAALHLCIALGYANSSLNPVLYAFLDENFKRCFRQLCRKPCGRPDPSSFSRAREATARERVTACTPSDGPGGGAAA
Chain of ADRB2 (P07550 whole entry): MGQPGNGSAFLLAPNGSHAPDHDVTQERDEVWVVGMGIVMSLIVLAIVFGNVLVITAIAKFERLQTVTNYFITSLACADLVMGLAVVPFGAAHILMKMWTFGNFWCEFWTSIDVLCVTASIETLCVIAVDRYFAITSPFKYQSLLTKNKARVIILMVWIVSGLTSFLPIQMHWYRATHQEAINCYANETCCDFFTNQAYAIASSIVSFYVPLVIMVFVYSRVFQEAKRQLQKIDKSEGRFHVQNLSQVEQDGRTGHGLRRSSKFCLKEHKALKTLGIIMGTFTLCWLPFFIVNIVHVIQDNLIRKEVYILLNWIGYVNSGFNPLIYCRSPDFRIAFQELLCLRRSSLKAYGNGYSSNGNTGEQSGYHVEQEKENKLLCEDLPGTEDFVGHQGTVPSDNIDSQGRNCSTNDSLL
Chain of VEGFR2 (P35968 20-1356): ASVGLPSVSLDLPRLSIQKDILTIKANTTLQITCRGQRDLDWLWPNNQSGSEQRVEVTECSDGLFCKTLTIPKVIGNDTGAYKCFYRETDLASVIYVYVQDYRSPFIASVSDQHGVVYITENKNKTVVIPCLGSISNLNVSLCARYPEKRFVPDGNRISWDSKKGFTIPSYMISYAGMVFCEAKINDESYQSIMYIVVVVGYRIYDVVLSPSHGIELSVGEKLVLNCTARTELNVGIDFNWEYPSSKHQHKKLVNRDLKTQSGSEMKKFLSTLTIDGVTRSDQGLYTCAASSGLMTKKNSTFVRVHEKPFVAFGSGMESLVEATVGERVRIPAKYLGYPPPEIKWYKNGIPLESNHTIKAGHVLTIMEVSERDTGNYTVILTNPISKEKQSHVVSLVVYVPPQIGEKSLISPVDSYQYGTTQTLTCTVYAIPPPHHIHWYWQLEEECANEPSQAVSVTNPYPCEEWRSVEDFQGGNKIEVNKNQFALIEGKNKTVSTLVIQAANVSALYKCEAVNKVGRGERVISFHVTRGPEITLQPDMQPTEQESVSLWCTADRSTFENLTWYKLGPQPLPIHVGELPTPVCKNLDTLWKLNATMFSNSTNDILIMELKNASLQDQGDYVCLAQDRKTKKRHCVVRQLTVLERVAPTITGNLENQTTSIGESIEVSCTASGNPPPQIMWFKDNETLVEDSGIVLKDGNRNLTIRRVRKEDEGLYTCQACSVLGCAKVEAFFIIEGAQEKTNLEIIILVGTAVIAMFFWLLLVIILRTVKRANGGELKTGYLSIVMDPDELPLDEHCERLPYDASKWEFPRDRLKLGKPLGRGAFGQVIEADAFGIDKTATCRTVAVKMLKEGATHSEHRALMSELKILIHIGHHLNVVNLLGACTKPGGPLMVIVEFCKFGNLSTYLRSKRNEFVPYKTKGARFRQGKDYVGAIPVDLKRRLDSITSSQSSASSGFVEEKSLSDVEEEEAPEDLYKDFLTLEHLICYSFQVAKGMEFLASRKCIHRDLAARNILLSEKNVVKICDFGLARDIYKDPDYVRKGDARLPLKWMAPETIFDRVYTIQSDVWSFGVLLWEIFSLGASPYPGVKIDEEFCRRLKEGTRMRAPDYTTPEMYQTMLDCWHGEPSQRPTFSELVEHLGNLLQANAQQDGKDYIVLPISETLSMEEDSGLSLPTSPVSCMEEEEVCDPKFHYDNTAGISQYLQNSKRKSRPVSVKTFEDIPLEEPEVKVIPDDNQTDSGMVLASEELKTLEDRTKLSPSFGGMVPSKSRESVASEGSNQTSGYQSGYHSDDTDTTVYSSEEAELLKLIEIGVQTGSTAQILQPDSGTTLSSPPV
Chain of hERG (Q12809 whole entry): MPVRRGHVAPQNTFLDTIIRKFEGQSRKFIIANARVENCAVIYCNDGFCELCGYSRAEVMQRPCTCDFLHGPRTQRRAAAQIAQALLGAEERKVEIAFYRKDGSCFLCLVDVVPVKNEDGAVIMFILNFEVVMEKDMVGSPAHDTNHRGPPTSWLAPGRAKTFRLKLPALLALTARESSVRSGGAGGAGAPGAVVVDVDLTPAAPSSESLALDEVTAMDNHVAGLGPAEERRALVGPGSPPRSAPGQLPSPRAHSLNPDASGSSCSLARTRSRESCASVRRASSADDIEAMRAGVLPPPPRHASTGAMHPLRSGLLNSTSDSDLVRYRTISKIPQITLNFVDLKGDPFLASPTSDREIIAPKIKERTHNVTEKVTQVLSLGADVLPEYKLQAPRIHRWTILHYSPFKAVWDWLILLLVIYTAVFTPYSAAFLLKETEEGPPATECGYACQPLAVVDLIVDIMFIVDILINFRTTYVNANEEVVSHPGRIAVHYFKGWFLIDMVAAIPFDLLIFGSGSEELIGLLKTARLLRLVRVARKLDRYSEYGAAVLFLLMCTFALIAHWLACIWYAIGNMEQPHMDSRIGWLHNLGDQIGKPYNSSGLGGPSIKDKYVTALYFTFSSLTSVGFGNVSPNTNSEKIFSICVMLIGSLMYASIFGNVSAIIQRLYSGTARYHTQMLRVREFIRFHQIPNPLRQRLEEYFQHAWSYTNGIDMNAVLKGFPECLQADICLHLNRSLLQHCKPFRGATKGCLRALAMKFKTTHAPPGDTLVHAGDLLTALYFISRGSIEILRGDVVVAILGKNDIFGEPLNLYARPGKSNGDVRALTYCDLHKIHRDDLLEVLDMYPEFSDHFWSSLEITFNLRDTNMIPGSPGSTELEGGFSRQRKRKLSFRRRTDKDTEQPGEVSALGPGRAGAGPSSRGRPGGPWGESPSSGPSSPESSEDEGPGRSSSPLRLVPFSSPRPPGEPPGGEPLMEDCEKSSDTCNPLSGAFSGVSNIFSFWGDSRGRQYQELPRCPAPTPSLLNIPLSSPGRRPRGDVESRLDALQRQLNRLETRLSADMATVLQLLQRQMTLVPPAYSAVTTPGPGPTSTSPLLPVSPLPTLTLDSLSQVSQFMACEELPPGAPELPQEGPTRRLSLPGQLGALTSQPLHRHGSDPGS
Chain of DRD2S (P14416 1-414 isoform P14416-2): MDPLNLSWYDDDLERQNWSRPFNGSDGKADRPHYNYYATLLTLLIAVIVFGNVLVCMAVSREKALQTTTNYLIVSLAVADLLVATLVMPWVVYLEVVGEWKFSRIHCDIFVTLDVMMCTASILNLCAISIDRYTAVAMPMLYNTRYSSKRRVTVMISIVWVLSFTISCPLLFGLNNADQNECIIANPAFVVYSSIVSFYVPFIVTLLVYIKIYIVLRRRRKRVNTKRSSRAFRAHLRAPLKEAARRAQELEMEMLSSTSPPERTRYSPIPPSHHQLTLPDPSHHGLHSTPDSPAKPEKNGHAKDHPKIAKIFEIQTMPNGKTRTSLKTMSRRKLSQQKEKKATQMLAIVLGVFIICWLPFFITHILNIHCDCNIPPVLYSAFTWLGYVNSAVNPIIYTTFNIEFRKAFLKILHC

| SMILES | remaining at 0.5 h, 2 μM [1] [%] | remaining at 4 h, 2 μM [1] [%] | remaining at 0.5 h, 2 μM [2] [%] | remaining at 4 h, 2 μM [2] [%] | half-life at 2 μM [3] [h] | remaining at 1 h, 2 μM [3] [%] | remaining at 3 h, 2 μM [3] [%] | IC50 [4] [µM] | Emax [4] [%] | IC50 [5] [µM] | Emax [5] [%] | IC50 [6] [µM] | Emax [6] [%] | EC50 [7] [µM] | Emax [7] [%] | IC50 [8] [µM] | Emax [8] [%] | IC50 [9] [µM] | Emax [9] [%] | IC50 [10] [µM] | also measured |
| --- | --- | --- | --- | --- | --- | --- | --- | --- | --- | --- | --- | --- | --- | --- | --- | --- | --- | --- | --- | --- | --- |
| CC[C@H](C)[C@H](NC(=O)[C@H](CC(C)C)NC(=O)[C@H](CC(=O)O)NC(=O)CNC(=O)[C@H](CCCNC(=N)N)NC(=O)[C@@H](NC(=O)[C@H](Cc1ccccc1)NC(=O)[C@H](Cc1ccc(O)cc1)NC(=O)[C@@H]1CCC(=O)NCC(=O)NCC(=O)N[C@@H](CCCNC(=N)N)C(=O)NCC(=O)N[C@@H](Cc2c[nH]cn2)C(=O)N[C@@H](C(C)C)C(=O)N2CCC[C@H]2C(=O)N1)C(C)C)C(=O)N[C@@H](CO)C(=O)N[C@@H](Cc1ccccc1)C(=O)N[C@@H](Cc1ccc(O)cc1)C(=O)N[C@@H](CCCCN)C(=O)O [lassotide 36] (GGRGHVPEYFVRGDLISFYK-OH; lactam N-8) | 91.9 | 93.2 | 88.7 | 56.1 | 3.57 | 98.7 | 56.9 | > 45 | 0.3 | > 45 | 5.08 | > 45 | 11.8 | > 45 | 2.61 | > 45 | 15.6 | > 45 | 8.93 | > 45 | half-life at 2 μM [2]: 5.1 h; Emax [10]: 0%; IC50 [11]: > 45 µM; Emax [11]: 0%; IC50 [12]: > 45 µM; Emax [12]: 2.58%; IC50 ([13]; RC50, Antagonist, Result Type IC50): > 45 µM; Emax [13]: 0%; IC50 [14]: > 45 µM; Emax ([14]; human): 5.06%; IC50 [15]: > 45 µM; Emax [15]: 0%; IC50 [16]: > 45 µM; Emax [16]: 6.3%; IC50 [17]: > 45 µM; Emax [17]: 26.5% |
| CC[C@H](C)[C@H](NC(=O)[C@H](CC(C)C)NC(=O)[C@H](CC(=O)O)NC(=O)CNC(=O)[C@H](CCCNC(=N)N)NC(=O)[C@@H](NC(=O)[C@H](Cc1ccccc1)NC(=O)[C@H](Cc1ccc(O)cc1)NC(=O)[C@@H]1CCC(=O)NCC(=O)NCC(=O)N[C@@H](CCCNC(=N)N)C(=O)NCC(=O)N[C@@H](Cc2c[nH]cn2)C(=O)N[C@@H](C(C)C)C(=O)N2CCC[C@H]2C(=O)N1)C(C)C)C(=O)N[C@@H](CO)C(=O)N[C@@H](Cc1ccccc1)C(=O)N[C@@H](Cc1ccc(O)cc1)C(=O)N[C@@H](CCCCNC(=O)CCOCCOCCNC(=O)CCCc1ccc(I)cc1)C(=O)O [lassotide 47] (GGRGHVPEYFVRGDLISFYK([PEG2-Butanoyl(4-(4-I-phenyl))])-OH; lactam N-8) | 95.1 | 92.2 | 86.3 | 86.9 | 2.69 | 87.8 | 46.5 | > 45 | 0 | > 45 | 10.7 | > 45 | 13.4 | > 45 | 22.4 | > 45 | 40 | > 45 | 32.8 | > 45 | Emax [10]: 0%; IC50 [11]: > 45 µM; Emax [11]: 0%; IC50 [12]: > 45 µM; Emax [12]: 30%; IC50 ([13]; RC50 (IC50), GPCR cAMP, Antagonist, OPRD1): 40.3 µM; Emax [13]: 56.4%; Emax ([14]; human): 1.41%; IC50 ([14]; human): > 45 µM; IC50 [15]: > 45 µM; Emax [15]: 0%; IC50 [16]: > 45 µM; Emax [16]: 2.92%; IC50 [17]: > 45 µM; Emax [17]: 18.7% |
